Tests used:
Experiment in all cases: relative viability (nuclei count vs DMSO), 5 days (fraction); higher = more cells survive
[1] = compound: CC(C)C[C@H](NC(=O)[C@H](Cc1ccccc1)NC(=O)c1cnccn1)B(O)O [Bortezomib] + CS(=O)(=O)CCNCc1ccc(-c2ccc3ncnc(Nc4ccc(OCc5cccc(F)c5)c(Cl)c4)c3c2)o1 [Lapatinib] (partner 2 µM)
Summary of the method: (§1)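 Relative viability was taken as the ratio of nuclei in treated wells to nuclei in vehicle wells. Lung cancer cell lines in 1536-well plates received compounds by pin tool one day after seeding, either one drug alone or a fixed anchor-drug dose plus five library-drug doses (not always all listed) in √10 steps. Nuclei were counted on 4× images after 5 days of treatment, and values are medians of duplicate plates.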

[2] = compound: CC(C)C[C@H](NC(=O)[C@H](Cc1ccccc1)NC(=O)c1cnccn1)B(O)O [Bortezomib] + Cc1nc(Nc2ncc(C(=O)Nc3c(C)cccc3Cl)s2)cc(N2CCN(CCO)CC2)n1 [Dasatinib] (partner 0.075 µM)
Summary of the method: as §1

[3] = compound: CC1=CC(=NN1)NC2=CC(=NC(=N2)/C=C/C3=CC=CC=C3)N4CCN(CC4)C + O=C(CCCCCCC(=O)Nc1ccccc1)NO [Vorinostat] (partner 1 µM)
Summary of the method: as §1

[4] = compound: COC1=CC(c2cc3ccccc3[nH]2)=N/C1=C\c1[nH]c(C)cc1C [Obatoclax] + CS(=O)(=O)CCNCc1ccc(-c2ccc3ncnc(Nc4ccc(OCc5cccc(F)c5)c(Cl)c4)c3c2)o1 [Lapatinib] (partner 2 µM)
Summary of the method: as §1

Cell Line | relative viability ([1]; first compound 0.0002 µM) | relative viability ([1]; first compound 0.000632 µM) | relative viability ([1]; first compound 0.002 µM) | relative viability ([1]; first compound 0.006325 µM) | relative viability ([1]; first compound 0.02 µM) | relative viability ([2]; first compound 0.0002 µM) | relative viability ([2]; first compound 0.000632 µM) | relative viability ([2]; first compound 0.002 µM) | relative viability ([2]; first compound 0.006325 µM) | relative viability ([2]; first compound 0.02 µM) | relative viability ([3]; first compound 0.08 µM) | relative viability ([3]; first compound 0.253 µM) | relative viability ([3]; first compound 0.8 µM) | relative viability ([3]; first compound 2.53 µM) | relative viability ([3]; first compound 8 µM) | relative viability ([4]; first compound 0.01 µM) | relative viability ([4]; first compound 0.03162 µM) | relative viability ([4]; first compound 0.1 µM) | relative viability ([4]; first compound 0.3162 µM) | relative viability ([4]; first compound 1 µM)
COR-L 105 | 0.358 | 0.354 | 0.334 | 0.344 | 0.349 | 0.381 | 0.324 | 0.352 | 0.267 | 0.216 | 0.818 | 0.762 | 0.753 | 0.47 | 0.262 | 0.368 | 0.318 | 0.369 | 0.294 | 0.252
LCLC-97TM1 | 0.651 | 0.701 | 0.749 | 0.248 | 0.118 | 0.738 | 0.732 | 0.862 | 0.718 | 0.148 | 0.625 | 0.787 | 0.74 | 0.19 | 0.0813 | 0.835 | 0.936 | 1.3 | 0.906 | 1.21
NCI-H520 | 0.91 | 0.857 | 0.271 | 0.108 | 0.128 | 0.173 | 0.207 | 0.18 | 0.201 | 0.179 | 0.7 | 0.678 | 0.415 | 0.184 | 0.14 | 0.805 | 0.821 | 0.879 | 0.493 | 0.22
NCI-H1993 | 0.69 | 0.77 | 0.935 | 0.51 | 0.497 | 0.542 | 0.578 | 0.577 | 0.408 | 0.456 | 0.737 | 0.734 | 1.03 | 0.238 | 0.275 | 0.809 | 0.771 | 0.835 | 0.755 | 0.865
NCI-H1437 | 0.655 | 0.878 | 0.806 | 0.0943 | 0.0863 | 0.335 | 0.374 | 0.486 | 0.129 | 0.11 | 0.631 | 0.904 | 0.819 | 0.394 | 0.201 | 0.755 | 0.859 | 0.712 | 0.707 | 0.433
LC-2-ad | 0.73 | – | 0.928 | 0.258 | 0.1 | 0.52 | 0.332 | 0.6 | 0.149 | 0.187 | 0.709 | 0.751 | 0.467 | 0.186 | 0.15 | 0.977 | 0.906 | 0.802 | 0.817 | 0.867
HARA | 0.647 | 0.527 | 0.73 | 0.0694 | 0.0797 | 0.206 | 0.239 | 0.259 | 0.105 | 0.0621 | 0.545 | 0.689 | 0.459 | 0.26 | 0.0694 | 0.816 | 0.752 | 0.667 | 0.69 | 0.297
NCI-H1975 | 0.893 | 0.839 | 0.18 | 0.105 | 0.14 | 0.385 | 0.266 | 0.106 | 0.0685 | 0.084 | 0.663 | 0.733 | 0.536 | 0.187 | 0.128 | 1.01 | 0.823 | 0.649 | 0.825 | 0.341
